Data taken from US10377753B2, “Substituted 4-azaindoles and their use as GluN2B receptor modulators” (Janssen Pharmaceutica NV, priority 2015, dated 2019).

Biological target: cloned human NR1/NR2B ion channels (Homo sapiens (Human), UniProt Q05586+Q13224)
Test: HNR2BC: effects of test articles on cloned human NR1/NR2B ion channels expressed in mammalian cells (FLIPR calcium flux)
Assay type: cell-based
Conditions: cloned human NR1/NR2B, Table 5
In short: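 In a stable Tet-On-induced cell line expressing human GluN1/GluN2B, Calcium 5-loaded cells were preincubated 5 min with compound, then stimulated 5 min with glutamate at ~EC80 plus 10 μM glycine, in pH 7.4 HEPES buffer. FLIPR calcium fluorescence was normalized to control wells.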

Chain of cloned human NR1/NR2B ion channels (Q13224 27-1484, other chains not shown): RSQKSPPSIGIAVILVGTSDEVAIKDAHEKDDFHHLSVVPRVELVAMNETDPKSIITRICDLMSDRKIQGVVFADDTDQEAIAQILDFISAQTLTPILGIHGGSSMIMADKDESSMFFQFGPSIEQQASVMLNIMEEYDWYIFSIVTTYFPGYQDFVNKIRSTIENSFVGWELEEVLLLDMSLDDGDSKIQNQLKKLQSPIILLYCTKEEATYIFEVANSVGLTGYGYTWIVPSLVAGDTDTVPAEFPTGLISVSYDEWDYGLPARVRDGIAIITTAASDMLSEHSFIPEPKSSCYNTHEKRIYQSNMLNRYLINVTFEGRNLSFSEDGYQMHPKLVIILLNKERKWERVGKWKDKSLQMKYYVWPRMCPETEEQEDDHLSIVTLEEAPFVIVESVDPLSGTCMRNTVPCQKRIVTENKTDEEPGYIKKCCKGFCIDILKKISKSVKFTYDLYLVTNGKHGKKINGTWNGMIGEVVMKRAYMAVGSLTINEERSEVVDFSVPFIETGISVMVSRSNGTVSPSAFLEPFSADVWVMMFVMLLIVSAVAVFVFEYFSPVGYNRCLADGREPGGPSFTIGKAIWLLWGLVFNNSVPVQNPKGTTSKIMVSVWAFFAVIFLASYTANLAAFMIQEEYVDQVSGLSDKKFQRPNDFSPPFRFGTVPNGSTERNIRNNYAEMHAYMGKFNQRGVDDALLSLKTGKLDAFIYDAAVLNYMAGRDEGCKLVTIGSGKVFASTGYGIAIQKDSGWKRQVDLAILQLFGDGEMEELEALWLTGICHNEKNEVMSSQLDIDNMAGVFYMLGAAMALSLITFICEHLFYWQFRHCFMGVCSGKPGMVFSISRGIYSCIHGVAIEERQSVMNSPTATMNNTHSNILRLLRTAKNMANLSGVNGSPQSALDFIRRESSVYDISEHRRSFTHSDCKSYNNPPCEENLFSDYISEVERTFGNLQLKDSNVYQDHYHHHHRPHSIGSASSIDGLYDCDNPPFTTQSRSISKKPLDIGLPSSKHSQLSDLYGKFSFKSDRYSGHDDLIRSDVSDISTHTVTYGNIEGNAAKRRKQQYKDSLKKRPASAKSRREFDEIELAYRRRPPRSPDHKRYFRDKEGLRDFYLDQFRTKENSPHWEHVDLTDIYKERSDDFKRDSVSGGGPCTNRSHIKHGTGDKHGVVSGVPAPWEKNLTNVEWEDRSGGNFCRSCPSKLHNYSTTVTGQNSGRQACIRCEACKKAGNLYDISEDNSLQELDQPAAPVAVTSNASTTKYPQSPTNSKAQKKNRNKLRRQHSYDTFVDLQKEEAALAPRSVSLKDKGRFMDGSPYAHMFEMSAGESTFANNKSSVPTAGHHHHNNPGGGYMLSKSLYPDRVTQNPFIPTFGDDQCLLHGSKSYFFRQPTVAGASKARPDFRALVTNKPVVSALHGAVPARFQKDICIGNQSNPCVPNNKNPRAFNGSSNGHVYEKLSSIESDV

| Structure (SMILES) | IC50 [nM] |
| --- | --- |
| O=C(Cn1ccc2ncc(-c3ccccc3)cc21)N1CCOCC1 [Example 85, 1-Morpholino-2-(6-phenylpyrrolo[3,2-b]pyridin-1-yl)ethanone] | 63.1 |
| O=C(Cn1ccc2ncc(-c3ccccc3F)cc21)N1CCOCC1 [Example 86, 2-[6-(2-Fluorophenyl)pyrrolo[3,2-b]pyridin-1-yl]-1-morpholino-ethanone] | 501 |
| O=C(Cn1ccc2ncc(-c3cccc(F)c3)cc21)N1CCOCC1 [Example 87, 2-[6-(3-Fluorophenyl)pyrrolo[3,2-b]pyridin-1-yl]-1-morpholino-ethanone] | 1000 |
| O=C(Cn1ccc2ncc(-c3ccc(F)cc3)cc21)N1CCOCC1 [Example 88, 2-[6-(4-Fluorophenyl)pyrrolo[3,2-b]pyridin-1-yl]-1-morpholino-ethanone] | 251 |
| Cc1cccc(-c2cnc3ccn(CC(=O)N4CCOCC4)c3c2)c1 [Example 89, 1-Morpholino-2-[6-(m-tolyl)pyrrolo[3,2-b]pyridin-1-yl]ethanone] | 200 |
| Cc1ccc(-c2cnc3ccn(CC(=O)N4CCOCC4)c3c2)cc1 [Example 90, 1-Morpholino-2-[6-(p-tolyl)pyrrolo[3,2-b]pyridin-1-yl]ethanone] | 63.1 |
| CCc1cccc(-c2cnc3ccn(CC(=O)N4CCOCC4)c3c2)c1 [Example 91, 2-[6-(3-ethylphenyl)pyrrolo[3,2-b]pyridin-1-yl]-1-morpholino-ethanone] | 1580 |
| Cc1cc(-c2cnc3c(F)cn(CC(=O)N(C)C)c3c2)ccc1F [Example 92, 2-[3-Fluoro-6-(4-fluoro-3-methyl-phenyl)pyrrolo[3,2-b]pyridin-1-yl]-N,N-dimethyl-acetamide] | 126 |
| CN(C)C(=O)Cn1cc(F)c2ncc(-c3ccc(F)c(F)c3)cc21 [Example 93, 2-[6-(3,4-Difluorophenyl)-3-fluoro-pyrrolo[3,2-b]pyridin-1-yl]-N,N-dimethyl-acetamide] | 39.8 |
| CN(C)C(=O)Cn1cc(F)c2ncc(-c3cc(F)c(F)c(F)c3)cc21 [Example 94, 2-[3-Fluoro-6-(3,4,5-trifluorophenyl)pyrrolo[3,2-b]pyridin-1-yl]-N,N-dimethyl-acetamide] | 63.1 |
| CN(C)C(=O)Cn1cc(F)c2ncc(-c3cccc(C(F)F)c3)cc21 [Example 95, 2-[6-[3-(Difluoromethyl)phenyl]-3-fluoro-pyrrolo[3,2-b]pyridin-1-yl]-N,N-dimethyl-acetamide] | 39.8 |
| Cc1csc(-c2cnc3c(F)cn(CC(=O)N(C)C)c3c2)c1 [Example 96, 2-[3-Fluoro-6-(4-methyl-2-thienyl)pyrrolo[3,2-b]pyridin-1-yl]-N,N-dimethyl-acetamide] | 50.1 |
| CN(C)C(=O)Cn1cc(F)c2ncc(-c3ccc(Cl)s3)cc21 [Example 97, 2-[6-(5-Chloro-2-thienyl)-3-fluoro-pyrrolo[3,2-b]pyridin-1-yl]-N,N-dimethyl-acetamide] | 63.1 |
| CN(C)C(=O)Cn1cc(F)c2ncc(-c3ccc(F)cc3)cc21 [Example 98, 2-[3-Fluoro-6-(4-fluorophenyl)pyrrolo[3,2-b]pyridin-1-yl]-N,N-dimethyl-acetamide] | 50.1 |
| O=C(Cn1ccc2ncc(-c3cncc(C(F)(F)F)c3)cc21)NC1CC1 [Example 99, N-Cyclopropyl-2-[6-[5-(trifluoromethyl)-3-pyridyl]pyrrolo[3,2-b]pyridin-1-yl]acetamide] | 631 |
| O=C(Cn1ccc2ncc(-c3ccc(F)c(F)c3)cc21)NC1CC1 [Example 100, N-Cyclopropyl-2-[6-(3,4-difluorophenyl)pyrrolo[3,2-b]pyridin-1-yl]acetamide] | 1000 |
| O=C(Cn1ccc2ncc(-c3ccc(F)c(C(F)(F)F)c3)cc21)NC1CC1 [Example 101, N-Cyclopropyl-2-[6-[4-fluoro-3-(trifluoromethyl)phenyl]pyrrolo[3,2-b]pyridin-1-yl]acetamide] | 200 |
| O=C(Cn1ccc2ncc(-c3cncc(C(F)(F)F)c3)cc21)N1CCC1 [Example 102, 1-(Azetidin-1-yl)-2-[6-[5-(trifluoromethyl)-3-pyridyl]pyrrolo[3,2-b]pyridin-1-yl]ethanone] | 398 |
| O=C(Cn1ccc2ncc(-c3ccc(F)c(F)c3)cc21)N1CCC1 [Example 103, 1-(Azetidin-1-yl)-2-[6-(3,4-difluorophenyl)pyrrolo[3,2-b]pyridin-1-yl]ethanone] | 251 |
| O=C(Cn1ccc2ncc(-c3ccc(F)c(C(F)(F)F)c3)cc21)N1CCC1 [Example 104, 1-(Azetidin-1-yl)-2-[6-[4-fluoro-3-(trifluoromethyl)phenyl]pyrrolo[3,2-b]pyridin-1-yl]ethanone] | 31.6 |
| O=C(Cn1ccc2ncc(-c3ccc(F)c(C(F)(F)F)c3)cc21)N1CCCC1 [Example 105, 2-[6-[4-Fluoro-3-(trifluoromethyl)phenyl]pyrrolo[3,2-b]pyridin-1-yl]-1-pyrrolidin-1-yl-ethanone] | 39.8 |

| Structure (SMILES) | IC50 [nM] |
| --- | --- |
| O=C(Cn1ccc2ncc(-c3ccc(F)c(C(F)(F)F)c3)cc21)N1CC(F)(F)C1 [Example 106, 1-(3,3-Difluoroazetidin-1-yl)-2-[6-[4-fluoro-3-(trifluoromethyl)phenyl]pyrrolo[3,2-b]pyridin-1-yl]ethanone] | 316 |
| O=C(Cn1ccc2ncc(-c3ccc(F)c(F)c3)cc21)N1CCOCC1 [Example 107, 2-[6-(3,4-Difluorophenyl)pyrrolo[3,2-b]pyridin-1-yl]-1-morpholino-ethanone] | 158 |
| O=C(Cn1ccc2ncc(-c3ccc(F)c(C(F)(F)F)c3)cc21)N1CCOCC1 [Example 108, 2-[6-[4-Fluoro-3-(trifluoromethyl)phenyl]pyrrolo[3,2-b]pyridin-1-yl]-1-morpholino-ethanone] | 126 |
| O=C(Cn1ccc2ncc(-c3ccnc(C(F)(F)F)c3)cc21)N1CCC1 [Example 109, 1-(Azetidin-1-yl)-2-[6-[2-(trifluoromethyl)-4-pyridyl]pyrrolo[3,2-b]pyridin-1-yl]ethanone] | 158 |
| O=C(Cn1ccc2ncc(-c3ccnc(C(F)(F)F)c3)cc21)NC1CC1 [Example 110, N-Cyclopropyl-2-[6-[2-(trifluoromethyl)-4-pyridyl]pyrrolo[3,2-b]pyridin-1-yl]acetamide] | 251 |
| O=C(Cn1ccc2ncc(-c3cccc(C(F)(F)F)n3)cc21)NC1CC1 [Example 111, N-Cyclopropyl-2-[6-[6-(trifluoromethyl)-2-pyridyl]pyrrolo[3,2-b]pyridin-1-yl]acetamide] | 398 |
| Cc1ccc(-c2cnc3ccn(CC(=O)N4CCC4)c3c2)cn1 [Example 112, 1-(Azetidin-1-yl)-2-[6-(6-methyl-3-pyridyl)pyrrolo[3,2-b]pyridin-1-yl]ethanone] | 501 |
| N#Cc1ccc(-c2cnc3ccn(CC(=O)N4CCC4)c3c2)cn1 [Example 113, 5-[1-[2-(Azetidin-1-yl)-2-oxo-ethyl]pyrrolo[3,2-b]pyridin-6-yl]pyridine-2-carbonitrile] | 5010 |
| Fc1ccc(-c2cnc3ccn(Cc4cncnc4)c3c2)cc1F [Example 114, 6-(3,4-Difluorophenyl)-1-(pyrimidin-5-ylmethyl)pyrrolo[3,2-b]pyridine] | > 10000 |
| Fc1cnc(Cn2ccc3ncc(-c4ccc(F)c(F)c4)cc32)nc1 [Example 115, 6-(3,4-Difluorophenyl)-1-[(5-fluoropyrimidin-2-yl)methyl]pyrrolo[3,2-b]pyridine] | 316 |
| O=C(C1CCC1)n1ccc2ncc(-c3ccc(F)c(F)c3)cc21 [Example 116, Cyclobutyl-[6-(3,4-difluorophenyl)pyrrolo[3,2-b]pyridin-1-yl]methanone] | 794 |
| O=C(Cn1ccc2ncc(-c3cccc(C(F)(F)F)n3)cc21)N1CC(F)(F)C1 [Example 117, 1-(3,3-Difluoroazetidin-1-yl)-2-[6-[6-(trifluoromethyl)-2-pyridyl]pyrrolo[3,2-b]pyridin-1-yl]ethanone] | 5010 |
| O=C(Cn1ccc2ncc(-c3ccc(F)c(F)c3F)cc21)N1CCC1 [Example 118, 1-(Azetidin-1-yl)-2-[6-(2,3,4-trifluorophenyl)pyrrolo[3,2-b]pyridin-1-yl]ethanone] | 100 |
| O=C(CC1CC1)n1ccc2ncc(-c3ccc(F)c(F)c3)cc21 [Example 119, 2-Cyclopropyl-1-[6-(3,4-difluorophenyl)pyrrolo[3,2-b]pyridin-1-yl]ethanone] | 50.1 |
| O=C(Cn1ccc2ncc(-c3ccc(F)c(F)c3F)cc21)N1CCCC1 [Example 120, 1-Pyrrolidin-1-yl-2-[6-(2,3,4-trifluorophenyl)pyrrolo[3,2-b]pyridin-1-yl]ethanone] | 631 |
| O=C(Cn1ccc2ncc(-c3cc(F)cc(F)c3)cc21)N1CC(F)(F)C1 [Example 121, 1-(3,3-difluoroazetidin-1-yl)-2-[6-(3,5-difluorophenyl)pyrrolo[3,2-b]pyridin-1-yl]ethanone] | 63.1 |
| O=C(Cn1ccc2ncc(-c3cc(F)cc(F)c3)cc21)N1CCCC1 [Example 122, 2-[6-(3,5-Difluorophenyl)pyrrolo[3,2-b]pyridin-1-yl]-1-pyrrolidin-1-yl-ethanone] | 39.8 |
| O=C(Cn1ccc2ncc(-c3cc(F)c(F)c(F)c3)cc21)N1CCCC1 [Example 123, 1-Pyrrolidin-1-yl-2-[6-(3,4,5-trifluorophenyl)pyrrolo[3,2-b]pyridin-1-yl]ethanone] | 20 |
| O=C(Cn1ccc2ncc(-c3cc(F)c(F)c(F)c3)cc21)N1CC(F)(F)C1 [Example 124, 1-(3,3-Difluoroazetidin-1-yl)-2-[6-(3,4,5-trifluorophenyl)pyrrolo[3,2-b]pyridin-1-yl]ethanone] | 31.6 |
| O=C(Cn1ccc2ncc(-c3cc(F)cc(F)c3)cc21)N1CCOCC1 [Example 125, 2-[6-(3,5-Difluorophenyl)pyrrolo[3,2-b]pyridin-1-yl]-1-morpholino-ethanone] | 31.6 |
| O=C(Cn1ccc2ncc(-c3ccc(F)c(F)c3F)cc21)N1CCOCC1 [Example 126, 1-Morpholino-2-[6-(2,3,4-trifluorophenyl)pyrrolo[3,2-b]pyridin-1-yl]ethanone] | 100 |
